According to US20220204473A1, “COMPOUND AS IRAK INHIBITOR” (SHANGHAI MEIYUE BIOTECH DEVELOPMENT CO., LTD., priority 2018, published 2022):
Read-outs that look alike come from different tables or passages of the source.

Columns and labels:
[1] = target: T1, CYP2C19 (Homo sapiens, UniProt P33261); test: CYP450 inhibition in human liver microsomes, CYP2C19; format: in vitro ADME; conditions: human liver microsomes, probe mephenytoin; read-out: IC50, subtype 2C19
T1 construct: tissue Corning (USA); host or cells: mixed human liver microsomes
T1 sequence (P33261 whole entry): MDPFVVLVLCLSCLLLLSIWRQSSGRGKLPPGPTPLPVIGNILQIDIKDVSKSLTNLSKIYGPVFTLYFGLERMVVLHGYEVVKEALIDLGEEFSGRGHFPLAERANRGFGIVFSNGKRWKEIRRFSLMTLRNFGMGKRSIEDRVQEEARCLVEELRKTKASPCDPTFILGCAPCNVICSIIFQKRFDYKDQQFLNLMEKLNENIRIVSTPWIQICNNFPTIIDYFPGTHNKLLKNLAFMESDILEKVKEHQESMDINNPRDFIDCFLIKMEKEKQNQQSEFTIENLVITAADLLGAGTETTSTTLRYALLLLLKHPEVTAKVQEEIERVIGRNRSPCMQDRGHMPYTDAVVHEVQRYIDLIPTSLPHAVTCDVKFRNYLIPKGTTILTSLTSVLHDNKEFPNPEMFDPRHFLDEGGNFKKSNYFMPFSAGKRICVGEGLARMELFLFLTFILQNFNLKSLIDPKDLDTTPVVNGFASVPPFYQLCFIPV
Procedure: (§1) This study was intended to investigate the inhibitory effect of the test compounds on five major CYP450 enzyme subtypes CYP1A2, 2C9, 2C19, 2D6 and 3A4 in human liver microsomes. The mixed human liver microsomes used in this assay were purchased from Corning (USA). The test compounds were co-incubated at 7 concentrations with human liver microsomes and five probe substrates (phenacetin for CYP1a2, diclofenac for CYP2C9, mephenytoin for CYP2C19, dextromethorphan for CYP2D6, midazolam for CYP3A4-M, mixed). The reaction was initiated by adding coenzyme NADPH, and terminated by adding acetonitrile containing internal standard. After the proteins were precipitated, the supernatant was centrifuged. The characteristic metabolites in the supernatant (acetaminophen for CYP1A2, 4-hydroxydiclofenac for CYP2C9, 4-hydroxymephenytoin for CYP2C19, dextrorphan for CYP2D6, 1-hydroxymidazolam for CYP3A4-M) were analyzed by LC-MS/MS. The influence of the test compounds on production of the characteristic metabolites was finally analyzed on the basis of the data obtained. A selective inhibitor (ketoconazole for CYP3A4-M) was used as positive control. All samples were tested in duplicate.

[2] = PK assay in rat (intravenous injection and oral gavage); format: in vivo; conditions: plasma, male SD rat; for Cmax: read-out: Peak concentration Cmax; for AUC(0-t): read-out: Area under curve AUC0-t; for AUC(0-inf): read-out: Area under curve AUC0-∞; for MRT: read-out: Average retention time MRT; for clearance: read-out: Clearance CL; for half-life: read-out: Half life t1/2 (converted); for Vd: read-out: Volume of distribution at steady state VZ; for bioavailability: read-out: Bioavailability F; for Tmax: read-out: Time to peak tmax
Procedure: The rats used for pharmacokinetic study in the example were male SPF-grade SD rats (B&K Universal, Shanghai).
Route of administration: a single dose by oral gavage or intravenous injection
Sampling points: 0.083 h, 0.25 h, 0.5 h, 1 h, 2 h, 4 h, 6 h, 8 h and 24 h after administration
Sample processing: 0.2 mL of venous blood was collected, and let stand on ice before centrifugation to separate plasma (centrifugation conditions: 8000 rpm, 6 min, 4° C.). The separated plasma was stored at −80° C. before analysis.
Internal standard working solution: An appropriate amount of tolbutamide internal standard stock solution at 645,000 ng/mL was added into a volumetric flask, and was diluted to the volume with methanol. The solution was well mixed to give an internal standard working solution with a concentration of 50 ng/mL.
Sample pretreatment: 50 μL of plasma was added into a 1.5-mL centrifuge tube, and added with 250 μL of internal standard solution (methanol of the same volume for the blank control). The solution was well mixed by vortex, and centrifuged for 5 min at 14000 rpm. 200 μL of the supernatant was transferred into a 96-well sample feeding plate, and loaded onto a LC-MS/MS system.
Column: ACQUITY UPLC BEH C18 1.7 μm (50 mm×2.10 mm)
Mobile phase: A: 0.1% aqueous formic acid; B: 0.1% formic acid in acetonitrile
The data processing system was Analyst software (Applied Biosystems, USA, ver 1.5.5).

[3] = target: T2, hERG potassium ion channel (Homo sapiens, UniProt Q12809); test: hERG whole-cell patch clamp in HEK-293 cells; format: cell-based; conditions: HEK-293 cells stably expressing hERG, pH 7.4, inhibition for hERG at 30 μM concentration
T2 construct: expressed in transfected cells; host or cells: HEK-293
T2 sequence (Q12809 whole entry): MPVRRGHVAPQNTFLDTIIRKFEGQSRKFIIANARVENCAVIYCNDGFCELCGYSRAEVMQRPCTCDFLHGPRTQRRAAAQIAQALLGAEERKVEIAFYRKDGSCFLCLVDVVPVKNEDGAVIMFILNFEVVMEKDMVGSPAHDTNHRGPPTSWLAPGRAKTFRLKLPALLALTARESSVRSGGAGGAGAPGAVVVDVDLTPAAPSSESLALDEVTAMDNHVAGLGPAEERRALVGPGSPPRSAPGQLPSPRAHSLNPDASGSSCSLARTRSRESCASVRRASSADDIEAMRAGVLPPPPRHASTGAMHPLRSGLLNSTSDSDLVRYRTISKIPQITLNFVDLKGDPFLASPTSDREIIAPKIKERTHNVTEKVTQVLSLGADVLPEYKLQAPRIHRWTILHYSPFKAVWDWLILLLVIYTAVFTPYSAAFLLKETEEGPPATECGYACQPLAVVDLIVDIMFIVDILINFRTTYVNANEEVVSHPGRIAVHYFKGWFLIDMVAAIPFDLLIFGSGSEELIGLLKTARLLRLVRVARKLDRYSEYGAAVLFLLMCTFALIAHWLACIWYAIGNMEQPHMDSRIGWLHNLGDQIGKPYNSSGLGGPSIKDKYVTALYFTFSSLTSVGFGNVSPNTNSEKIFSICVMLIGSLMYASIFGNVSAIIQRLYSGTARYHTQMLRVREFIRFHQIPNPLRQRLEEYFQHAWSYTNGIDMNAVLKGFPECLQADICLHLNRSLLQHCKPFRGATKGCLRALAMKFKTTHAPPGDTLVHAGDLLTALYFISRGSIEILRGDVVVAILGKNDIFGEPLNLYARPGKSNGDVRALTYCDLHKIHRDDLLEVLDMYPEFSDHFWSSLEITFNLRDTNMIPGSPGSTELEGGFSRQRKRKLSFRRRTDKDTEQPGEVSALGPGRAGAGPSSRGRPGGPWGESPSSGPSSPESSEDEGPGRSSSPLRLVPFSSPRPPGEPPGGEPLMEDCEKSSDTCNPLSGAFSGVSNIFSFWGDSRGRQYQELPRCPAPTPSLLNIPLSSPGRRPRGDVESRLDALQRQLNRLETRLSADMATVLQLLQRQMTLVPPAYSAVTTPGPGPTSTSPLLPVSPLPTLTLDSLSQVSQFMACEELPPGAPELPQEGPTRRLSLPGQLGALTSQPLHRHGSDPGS
Procedure: This study evaluated the cardiac safety of the compounds according to the present disclosure, and an HEK-293 cell line stably expressing hERG potassium ion channel was used for detection.
Procedures: Test compound stocks were diluted in DMSO into 0.3 mM, 1 mM, and 3 mM dilutions respectively. […] The working solutions of the test compounds were ultrasonically treated for 20 min.
Patch clamping: Under an inverted microscope, recording electrodes were controlled by micromanipulator to contact with the cell. A negative voltage was applied to create a G-omega shaped connection. After forming the G-omega shaped connection, a rapid capacitance compensation was given. Under the continuous negative voltage, the cell membrane was ruptured to form a whole-cell recording configuration. In the whole-cell recording configuration, slow capacitance compensation was given, and the values of membrane capacitance and series resistance were recorded.
Voltage stimulation scheme for cellular hERG potassium current: The cell membrane clamping voltage was −80 mV; the voltage was first elevated from −80 mV to +30 mV, held for 2.5 sec, and rapidly raised to and held at −50 mV for 4 sec, thus exciting the hERG channel tail current. Data acquisition was performed every 10 sec. −50 mV was used for drain current detection.
The cover glasses planted with cells were placed in the recording chamber of an inverted microscope. Negative control and test compounds flowed through the recording chamber in an ascending order of concentration by gravity perfusion to quickly act on the cells. During the recording, the extracellular buffer was continuously circulated by a vacuum pump. The current detected in a cell in the negative control was used as the background for the cell. Each concentration was allowed to act for 5 min or until the current was stabilized. All experiments were performed at room temperature.
The current of each concentration was normalized first
and then the inhibition rate was calculated
Basic statistics were calculated for each concentration, including mean, standard deviation (SD), standard error (SE), and replicates (n). The dose-dependent curve was fitted with the following equation and the half maximal inhibitory concentration (IC50) of the test compounds was calculated:
wherein C represents the test compound concentration, IC50 represents the half maximal inhibitory concentration, and h represents the Hill coefficient. Curve fitting and calculation of IC50 were done by GraphPad Prism 5.0 software.

[4] = target: T3, CYP2D6 (Homo sapiens, UniProt P10635); test: CYP450 inhibition in human liver microsomes, CYP2D6; format: in vitro ADME; conditions: human liver microsomes, probe dextromethorphan; read-out: IC50, subtype 2D6
T3 construct: tissue Corning (USA); host or cells: mixed human liver microsomes
T3 sequence (P10635 whole entry): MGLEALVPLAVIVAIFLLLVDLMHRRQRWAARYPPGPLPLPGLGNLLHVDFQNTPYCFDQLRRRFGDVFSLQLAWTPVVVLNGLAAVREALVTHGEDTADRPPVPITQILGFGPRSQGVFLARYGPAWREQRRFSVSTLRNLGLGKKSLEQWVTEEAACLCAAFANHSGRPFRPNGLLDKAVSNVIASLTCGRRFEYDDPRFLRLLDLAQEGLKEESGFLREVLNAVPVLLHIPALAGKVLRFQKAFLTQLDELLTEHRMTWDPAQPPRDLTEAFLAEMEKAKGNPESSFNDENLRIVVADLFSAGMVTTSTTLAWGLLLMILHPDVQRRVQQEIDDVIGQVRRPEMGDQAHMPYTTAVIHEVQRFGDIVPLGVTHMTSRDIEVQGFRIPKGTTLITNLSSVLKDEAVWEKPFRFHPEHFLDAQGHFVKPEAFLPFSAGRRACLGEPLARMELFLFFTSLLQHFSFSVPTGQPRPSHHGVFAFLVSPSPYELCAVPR
Procedure: as §1

[5] = tested on: Salmonella typhimurium TA98 and TA100; test: Mini-Ames assay in Salmonella typhimurium; conditions: TA98 and TA100, with or without S9 mixture
Procedure: S9 homogenate: β-napthoflavone and phenobarbital induced rat liver microsome homogenate S9 fraction was used as the metabolic activation system for this assay. S9 was purchased from CHI Scientific, Inc. and stored in a freezer at −75° C. before use.
S9 mixture and mock mixture: S9 was quickly thawed to prepare a liquid mixture before the assay. 0.2 M PBS phosphate buffer (pH 7.4) was used as the mock mixture.
The overnight bacterial cultures were prepared from a stock of the strains. 80 μL of the stock was added to 20 mL of broth. For strains TA98 and TA100, 62.5 μL of ampicillin at a concentration of 0.8% were added per 10 mL of broth #2. The inoculated broth was then incubated on a thermostatic shaker overnight at 37° C. with a rotation speed of 160±10 rpm. The overnight cultures over the target absorbance were stored at 2-8° C. before use. The overnight cultures were used for genotyping and mutation tests.
The experimental system was exposed to the test compounds on plates in plate incorporation assay (Ames et al., 1975; N. Flamand et al., 2000).

[6] = 1 mg/kg, intravenous injection, 1 mpk, 5% DMSO + 15% Solutol + 80% Saline
[7] = 1 mg/kg, intravenous injection, 1 mpk
[8] = 5 mg/kg, oral administration, 5 mpk, 15% solutol HS15 + 85% PBS
[9] = 2 mg/kg, oral administration, 2 mpk, 5% DMSO + 15% Solutol + 80% Saline

IC50 [1] | IC50 [4] | SMILES | Cmax [2, 6] | AUC(0-t) [2, 7] | AUC(0-inf) [2, 7] | MRT [2, 7] | clearance [2, 7] | half-life [2, 7] | Vd [2, 7] | AUC(0-t) [2, 8] | AUC(0-inf) [2, 8] | MRT [2, 8] | bioavailability [2, 8] | half-life [2, 8] | Cmax [2, 8] | Tmax [2, 8] | inhibition at 5 min, 30 µM [3] | Mini-Ames result [5] | further results
> 30 µM | > 30 µM | COc1cc2nn([C@H]3CC[C@](C)(O)CC3)cc2cc1NC(=O)c1cccc(C(F)(F)F)n1 [MY-004-126-1] | 1210 ng/mL | 3150 ng·h/mL | 3250 ng·h/mL | 5.46 h | 5.14 mL/min/kg | 5.25 h | 2.34 L/kg | 11500 ng·h/mL | 17700 ng·h/mL | 22.4 h | 73.1% | 15.2 h | 924 ng/mL | 4 h | 12.8% | – | –
> 30 µM | > 30 µM | CC(C)(O)c1cc2nn([C@H]3CC[C@](C)(O)CC3)cc2cc1NC(=O)c1cccc(C(C)(F)F)n1 [MY-004-165] | – | – | – | – | – | – | – | – | – | – | – | – | – | – | – | – | –
– | – | COc1cc2nn([C@H]3CC[C@@](C)(O)CC3)cc2cc1NC(=O)c1cccc(C(F)(F)F)n1 [MY-004-126-2] | 1430 ng/mL | 4080 ng·h/mL | 4540 ng·h/mL | 8.81 h | 3.74 mL/min/kg | 7.59 h | 2.4 L/kg | 15400 ng·h/mL | 35900 ng·h/mL | 10.3 h | 75.8% | 24.8 h | 1150 ng/mL | 4 h | 10.1% | negative | –
– | – | CN(C)c1cc2nn([C@H]3CC[C@H](O)CC3)cc2cc1NC(=O)c1cccc(C(F)(F)F)n1 [MY-004-153] | – | – | – | – | – | – | – | – | – | – | – | – | – | – | 17.7% | – | –
– | – | CN(C)c1cc2nn([C@H]3C[C@H](C(C)(C)O)C3)cc2cc1NC(=O)c1cccc(C(F)(F)F)n1 [MY-004-089] | 1580 ng/mL | 3390 ng·h/mL | 3510 ng·h/mL | 5.2 h | 4.89 mL/min/kg | 5.5 h | 2.26 L/kg | – | – | – | – | – | – | – | – | – | AUC(0-t) [2, 9]: 3000 ng·h/mL; AUC(0-inf) [2, 9]: 3550 ng·h/mL; MRT [2, 9]: 12.6 h; bioavailability [2, 9]: 44.2%; half-life [2, 9]: 8.11 h; Cmax [2, 9]: 227 ng/mL; Tmax [2, 9]: 4 h

SMILES | IC50 [1] | IC50 [4] | Cmax [2, 6] | AUC(0-t) [2, 7] | AUC(0-inf) [2, 7] | MRT [2, 7] | clearance [2, 7] | half-life [2, 7] | Vd [2, 7] | AUC(0-t) [2, 8] | AUC(0-inf) [2, 8] | MRT [2, 8] | bioavailability [2, 8] | half-life [2, 8] | Cmax [2, 8] | Tmax [2, 8] | inhibition at 5 min, 30 µM [3] | Mini-Ames result [5] | further results
COc1cc2nn([C@H]3CC[C@H](O)CC3)cc2cc1NC(=O)c1cccc(C(F)(F)F)n1 [MY-004-127-1] | > 30 µM | > 30 µM | 1420 ng/mL | 5530 ng·h/mL | 5880 ng·h/mL | 7.54 h | 2.84 mL/min/kg | 6.29 h | 1.55 L/kg | 18400 ng·h/mL | 22500 ng·h/mL | 9.16 h | 66.5% | 8.84 h | 1480 ng/mL | 4.67 h | 11.6% | negative | –
